Where “and” joins values, the source holds several entries; their conditions need not be identical. Equal entries are not always repeated.
Settings: Liquid

FC(F)(F)COCC(F)(F)F [1,1,1-trifluoro-2-(2,2,2-trifluoroethoxy)ethane]
Settings | Critical density [kg/m3] | Critical pressure [kPa] | Critical temperature [K] | vapor or sublimation pressure
– | 500 | – | – | –
293.4 K | – | – | – | 18 kPa
293.59 K | – | – | – | 18.2 kPa
303.09 K | – | – | – | 27.9 kPa
303.12 K | – | – | – | 28 kPa
313.12 K | – | – | – | 42.6 kPa
313.14 K | – | – | – | 42.8 kPa
323.15 K | – | – | – | 63.3 kPa
323.17 K | – | – | – | 63.4 kPa
333.2 K | – | – | – | 91.3 kPa and 91.4 kPa
338.22 K | – | – | – | 109 kPa
343.24 K | – | – | – | 129.2 kPa
353.27 K | – | – | – | 178.3 kPa
353.28 K | – | – | – | 178.3 kPa
363.31 K | – | – | – | 241.1 kPa
373.34 K | – | – | – | 320 kPa
373.35 K | – | – | – | 320.1 kPa
383.38 K | – | – | – | 417.4 kPa and 417.3 kPa
393.43 K | – | – | – | 536.2 kPa and 536.3 kPa
Direct measurement | – | 2783 | – | –
Visual observation in an unstirred cell | – | – | 476.31 | –

FCC(F)(F)F [1,1,1,2-tetrafluoroethane]
Settings | Critical density [kg/m3] | Critical pressure [kPa] | Critical temperature [K]
– | 508 | – | –
Direct measurement | – | 4051 | –
Visual observation in an unstirred cell | – | – | 374.13

FC(F)OCC(F)(F)C(F)(F)F [difluoromethyl 2,2,3,3,3-pentafluoropropyl ether]
Settings | Critical density [kg/m3] | Critical pressure [kPa] | Critical temperature [K] | vapor or sublimation pressure [kPa]
– | 576 | – | – | –
298.42 K | – | – | – | 44.2
322.49 K | – | – | – | 111.5
332.63 K | – | – | – | 157.2
342.7 K | – | – | – | 216.6
352.65 K | – | – | – | 290.7
362.73 K | – | – | – | 384.1
372.78 K | – | – | – | 498.1
382.79 K | – | – | – | 637.5
392.82 K | – | – | – | 807.7
402.86 K | – | – | – | 1006.3
412.9 K | – | – | – | 1244.5
422.93 K | – | – | – | 1524.9
432.96 K | – | – | – | 1858.4
442.98 K | – | – | – | 2203.3
454.99 K | – | – | – | 2769
455.27 K | – | – | – | 2796.4
Direct measurement | – | 2773 | – | –
Visual observation in an unstirred cell | – | – | 455.1 | –

FC(C(F)(F)F)C(F)(F)OCC(F)(F)F (centres undefined) [1,1,1,2,3,3-hexafluoro-3-(2,2,2-trifluoroethoxy)propane]
Settings | Critical density [kg/m3] | Critical pressure [kPa] | Critical temperature [K] | vapor or sublimation pressure [kPa]
– | 563 | – | – | –
302.76 K | – | – | – | 18.7
312.63 K | – | – | – | 29.6
322.65 K | – | – | – | 44.6
332.64 K | – | – | – | 65.7
342.72 K | – | – | – | 93.9
352.73 K | – | – | – | 131
362.77 K | – | – | – | 179.1
372.79 K | – | – | – | 239.7
382.83 K | – | – | – | 315.9
392.84 K | – | – | – | 408
402.89 K | – | – | – | 521.2
412.92 K | – | – | – | 657.3
422.94 K | – | – | – | 814.3
432.97 K | – | – | – | 1004.4
443 K | – | – | – | 1225.6
453.02 K | – | – | – | 1480.3
463.04 K | – | – | – | 1778.5
473.06 K | – | – | – | 2125
475.79 K | – | – | – | 2236.1
Direct measurement | – | 2233 | – | –
Visual observation in an unstirred cell | – | – | 475.74 | –

FC(F)C(F)(F)OCC(F)(F)F [2,2,2-trifluoroethyl 1,1,2,2-tetrafluoroethyl ether]
Settings | Critical density [kg/m3] | Critical pressure [kPa] | Critical temperature [K] | vapor or sublimation pressure [kPa]
– | 541 | – | – | –
297.29 K | – | – | – | 27.8
313.67 K | – | – | – | 55.7
322.82 K | – | – | – | 79.9
332.69 K | – | – | – | 114.5
342.88 K | – | – | – | 162
352.74 K | – | – | – | 221.2
362.7 K | – | – | – | 296.8
372.69 K | – | – | – | 391.4
382.81 K | – | – | – | 510.6
392.83 K | – | – | – | 651.7
402.83 K | – | – | – | 821.2
413.9 K | – | – | – | 1046.2
422.92 K | – | – | – | 1260.9
432.91 K | – | – | – | 1536.4
442.98 K | – | – | – | 1859.3
452.95 K | – | – | – | 2231
462.99 K | – | – | – | 2668.5
463.89 K | – | – | – | 2713.3
463.94 K | – | – | – | 2715.8
Direct measurement | – | 2713 | – | –
Visual observation in an unstirred cell | – | – | 463.89 | –

COC(F)(F)C(F)(F)C(F)F [1,1,2,2,3,3-hexafluoro-1-methoxypropane]
Settings | Critical pressure [kPa] | Critical temperature [K] | vapor or sublimation pressure [kPa]
– | 3032 | 486.98 | –
301.9 K | – | – | 22.4
312.59 K | – | – | 35
322.63 K | – | – | 52.9
332.69 K | – | – | 77
337.67 K | – | – | 92.1
342.69 K | – | – | 109.2
352.73 K | – | – | 151.1
362.74 K | – | – | 204.9
372.78 K | – | – | 273.4
382.81 K | – | – | 357.4
392.84 K | – | – | 458.8
402.87 K | – | – | 581.1
412.87 K | – | – | 726.2
422.91 K | – | – | 898.8
432.94 K | – | – | 1100.7
442.97 K | – | – | 1333.7
452.99 K | – | – | 1605.1
463.02 K | – | – | 1921.8
473.04 K | – | – | 2276.4
480.12 K | – | – | 2562.9

CC(F)(F)Cl [1-chloro-1,1-difluoroethane]
Settings | Critical density [kg/m3] | Critical pressure [kPa] | Critical temperature [K]
– | 442 | – | –
Direct measurement | – | 4054 | –
Visual observation in an unstirred cell | – | – | 410.3

FC(F)C(F)(F)COC(F)(F)C(F)F [1,1,2,2-tetrafluoro-3-(1,1,2,2-tetrafluoroethoxy)propane]
Settings | Critical density [kg/m3] | Critical pressure [kPa] | Critical temperature [K] | vapor or sublimation pressure [kPa]
– | 530 | – | – | –
322.65 K | – | – | – | 20.9
332.65 K | – | – | – | 31.6
342.71 K | – | – | – | 46.8
352.73 K | – | – | – | 67.9
362.77 K | – | – | – | 95.4
372.77 K | – | – | – | 131.3
382.81 K | – | – | – | 177.3
402.88 K | – | – | – | 308.1
412.91 K | – | – | – | 395.4
422.94 K | – | – | – | 500.2
432.96 K | – | – | – | 628.3
442.99 K | – | – | – | 773.9
453.01 K | – | – | – | 946.9
463.24 K | – | – | – | 1151.4
473.06 K | – | – | – | 1378.5
481.12 K | – | – | – | 1591
491.9 K | – | – | – | 1907.6
501.73 K | – | – | – | 2245.2
509.65 K | – | – | – | 2552.5
Direct measurement | – | 2581 | – | –
Visual observation in an unstirred cell | – | – | 510.07 | –

From the NIST ThermoML archive (doi:10.1021/je0201976)
